Assay results from PubChem BioAssay (NCI).
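Interpolation was linear, between the two tested concentrations surrounding the appropriate level; five concentrations were tested over 48 hours in 96-well plates. TGI denotes the concentration required for complete inhibition of growth.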

Key:
Assay in all cases: NCI tumour cell line growth inhibition, 48 h
LXFL 529 NSCLC = tested on: LXFL 529 NSCLC
UACC-62 melanoma = tested on: UACC-62 melanoma
NCI-H23 lung = tested on: NCI-H23 lung
SK-OV-3 ovarian = tested on: SK-OV-3 ovarian
SF-295 CNS = tested on: SF-295 CNS
UO-31 renal = tested on: UO-31 renal
SK-MEL-5 melanoma = tested on: SK-MEL-5 melanoma
HL-60(TB) leukemia = tested on: HL-60(TB) leukemia
HT29 colon = tested on: HT29 colon
RPMI-8226 leukemia = tested on: RPMI-8226 leukemia
COLO 205 colon = tested on: COLO 205 colon
SW-620 colon = tested on: SW-620 colon
MALME-3M melanoma = tested on: MALME-3M melanoma
KM20L2 colon = tested on: KM20L2 colon
HCT-15 colon = tested on: HCT-15 colon
DMS 273 small cell lung = tested on: DMS 273 small cell lung
K-562 leukemia = tested on: K-562 leukemia
SNB-75 CNS = tested on: SNB-75 CNS
KM12 colon = tested on: KM12 colon
HCT-116 colon = tested on: HCT-116 colon
SK-MEL-2 melanoma = tested on: SK-MEL-2 melanoma
LOX IMVI melanoma = tested on: LOX IMVI melanoma
SNB-78 CNS = tested on: SNB-78 CNS
SF-539 CNS = tested on: SF-539 CNS
U251 CNS = tested on: U251 CNS
HOP-18 NSCLC = tested on: HOP-18 NSCLC
SNB-19 CNS = tested on: SNB-19 CNS
SN12C renal = tested on: SN12C renal
ACHN renal = tested on: ACHN renal
SK-MEL-28 melanoma = tested on: SK-MEL-28 melanoma
M14 melanoma = tested on: M14 melanoma
786-0 renal = tested on: 786-0 renal
IGROV1 ovarian = tested on: IGROV1 ovarian
A498 renal = tested on: A498 renal
OVCAR-5 ovarian = tested on: OVCAR-5 ovarian
OVCAR-8 ovarian = tested on: OVCAR-8 ovarian
RXF 393 renal = tested on: RXF 393 renal
MOLT-4 leukemia = tested on: MOLT-4 leukemia
CCRF-CEM leukemia = tested on: CCRF-CEM leukemia
TK-10 renal = tested on: TK-10 renal
UACC-257 melanoma = tested on: UACC-257 melanoma
M19-MEL melanoma = tested on: M19-MEL melanoma
DLD-1 colon = tested on: DLD-1 colon
NCI-H460 lung = tested on: NCI-H460 lung
DMS 114 small cell lung = tested on: DMS 114 small cell lung
SF-268 CNS = tested on: SF-268 CNS
SR leukemia = tested on: SR leukemia
A549 NSCLC = tested on: A549 NSCLC
NCI-H226 lung = tested on: NCI-H226 lung
NCI-H522 lung = tested on: NCI-H522 lung
OVCAR-3 ovarian = tested on: OVCAR-3 ovarian
HOP-92 NSCLC = tested on: HOP-92 NSCLC
OVCAR-4 ovarian = tested on: OVCAR-4 ovarian
EKVX NSCLC = tested on: EKVX NSCLC
HCC-2998 colon = tested on: HCC-2998 colon
CAKI-1 renal = tested on: CAKI-1 renal

O=C1/C(=C/c2ccccc2)CN(C(=O)OCC(Cl)(Cl)Cl)C/C1=C\c1ccccc1
TGI (LXFL 529 NSCLC): 3.94 µM
TGI (UACC-62 melanoma): 9.03 µM
TGI (NCI-H23 lung): 9.46 µM
TGI (SK-OV-3 ovarian): 24.6 µM
TGI (SF-295 CNS): 3.92 µM
TGI (UO-31 renal): 12.1 µM
TGI (SK-MEL-5 melanoma): 2.95 µM
TGI (HL-60(TB) leukemia): 3.38 µM
TGI (HT29 colon): 3.63 µM
TGI (RPMI-8226 leukemia): 0.649 µM
TGI (COLO 205 colon): 11.2 µM
TGI (SW-620 colon): 2.3 µM
TGI (MALME-3M melanoma): 11.9 µM
TGI (KM20L2 colon): 7.68 µM
TGI (HCT-15 colon): 4.32 µM
TGI (DMS 273 small cell lung): 3.27 µM
TGI (K-562 leukemia): 5.91 µM
TGI (SNB-75 CNS): 13.6 µM
TGI (KM12 colon): 3.74 µM
TGI (HCT-116 colon): 2.6 µM
TGI (SK-MEL-2 melanoma): 23.5 µM
TGI (LOX IMVI melanoma): 2.06 µM
TGI (SNB-78 CNS): 5.92 µM
TGI (SF-539 CNS): 14 µM
TGI (U251 CNS): 3.28 µM
TGI (HOP-18 NSCLC): 9.82 µM
TGI (SNB-19 CNS): 11.9 µM
TGI (SN12C renal): 3.56 µM
TGI (ACHN renal): 4.68 µM
TGI (SK-MEL-28 melanoma): 3.25 µM
TGI (M14 melanoma): 4.65 µM
TGI (786-0 renal): 5.46 µM
TGI (IGROV1 ovarian): 15.4 µM
TGI (A498 renal): 6.29 µM
TGI (OVCAR-5 ovarian): 16.8 µM
TGI (OVCAR-8 ovarian): 3.78 µM
TGI (RXF 393 renal): 3.87 µM
TGI (MOLT-4 leukemia): 10.3 µM
TGI (CCRF-CEM leukemia): 13.5 µM
TGI (TK-10 renal): 17.1 µM
TGI (UACC-257 melanoma): 4.48 µM
TGI (M19-MEL melanoma): 2.79 µM
TGI (DLD-1 colon): 3.77 µM
TGI (NCI-H460 lung): 5.66 µM
TGI (DMS 114 small cell lung): 4.08 µM
TGI (SF-268 CNS): 15.3 µM
TGI (SR leukemia): 6.23 µM
TGI (A549 NSCLC): 20.5 µM

CCC1NCC(=O)c2c1[nH]c1ccccc21 (stereo not drawn)
TGI (LXFL 529 NSCLC): > 100 µM
TGI (UACC-62 melanoma): > 100 µM
TGI (NCI-H23 lung): > 100 µM
TGI (SK-OV-3 ovarian): > 100 µM
TGI (SF-295 CNS): > 100 µM
TGI (UO-31 renal): > 100 µM
TGI (SK-MEL-5 melanoma): > 100 µM
TGI (HL-60(TB) leukemia): > 100 µM
TGI (HT29 colon): > 100 µM
TGI (NCI-H226 lung): > 100 µM
TGI (RPMI-8226 leukemia): > 100 µM
TGI (NCI-H522 lung): > 100 µM
TGI (COLO 205 colon): > 100 µM
TGI (SW-620 colon): > 100 µM
TGI (MALME-3M melanoma): > 100 µM
TGI (KM20L2 colon): > 100 µM
TGI (HCT-15 colon): > 100 µM
TGI (DMS 273 small cell lung): > 100 µM
TGI (K-562 leukemia): > 100 µM
TGI (SNB-75 CNS): > 100 µM
TGI (KM12 colon): > 100 µM
TGI (HCT-116 colon): > 100 µM
TGI (SK-MEL-2 melanoma): > 100 µM
TGI (OVCAR-3 ovarian): > 100 µM
TGI (LOX IMVI melanoma): > 100 µM
TGI (SNB-78 CNS): > 100 µM
TGI (HOP-92 NSCLC): > 100 µM
TGI (SF-539 CNS): > 100 µM
TGI (OVCAR-4 ovarian): > 100 µM
TGI (U251 CNS): > 100 µM
TGI (HOP-18 NSCLC): > 100 µM
TGI (SNB-19 CNS): > 100 µM
TGI (SN12C renal): > 100 µM
TGI (ACHN renal): > 100 µM
TGI (EKVX NSCLC): > 100 µM
TGI (SK-MEL-28 melanoma): > 100 µM
TGI (M14 melanoma): > 100 µM
TGI (786-0 renal): > 100 µM
TGI (HCC-2998 colon): > 100 µM
TGI (IGROV1 ovarian): > 100 µM
TGI (A498 renal): > 100 µM
TGI (OVCAR-5 ovarian): > 100 µM
TGI (OVCAR-8 ovarian): > 100 µM
TGI (MOLT-4 leukemia): > 100 µM
TGI (CCRF-CEM leukemia): > 100 µM
TGI (TK-10 renal): > 100 µM
TGI (UACC-257 melanoma): > 100 µM
TGI (M19-MEL melanoma): > 100 µM
TGI (DLD-1 colon): > 100 µM
TGI (NCI-H460 lung): > 100 µM
TGI (DMS 114 small cell lung): > 100 µM
TGI (SF-268 CNS): > 100 µM
TGI (SR leukemia): > 100 µM
TGI (CAKI-1 renal): > 100 µM
TGI (A549 NSCLC): > 100 µM
